Test results reported in patent publication US4877727A, “Substrate for determining leucine aminopeptidase or gamma-glutamyltranspeptase activity” (Kyowa Medex Co., Ltd., priority 1984, dated 1989).
≈ marks a conversion by molar mass, not a printed value.

Key:
[1] = test system: leucine aminopeptidase (LAP); experiment: LAP determination in serum, absorption change per minute (Example 1); assay type: biochemical
Procedure: 3 ml of the reagent solution was incubated at 37° C. for ten minutes. To the solution was added 0.05 ml of a serum sample and the mixture was immediately stirred and the change in absorption of the solution at 745 nm was measured for one minute.
LAP activity in the sample can be calculated using the following equation: [formula] ΔE means the amount of absorption change per minute.
The same procedures as described above were repeated except that the following materials were used. […]

Solubility of substrate = assay type: physicochemical; settings: read-out: S: Solubility
[2] = Maximum wavelength of formed pigment; assay type: physicochemical
Procedure: 50 μl of 1 mM each free compound was added to 3 ml of 0.1M phosphate buffer containing 0.5 mg/ml EMSE and 1 U/ml laccase and the mixture was incubated at 37° C. for 5 minutes. The absorption of the reaction solution at λmax was measured. As a control, 5-aminosalicylic acid was used and the reaction of the compound with 2,6-xylenol was carried out in the presence of metaperiodate under strong alkaline conditions.

Stability of pigment = assay type: physicochemical
[3] = Serum(1), 37° C., 745 nm Compound No. 2, 635 nm (a), 565 nm (b), 675 nm (c)

SMILES | amount of absorption change per minute ([1]; Serum (2), same wavelengths) | amount of absorption change per minute ([1]; Serum (3), same wavelengths) | amount of absorption change per minute ([1]; Serum (4), same wavelengths) | amount of absorption change per minute ([1]; Serum (5), same wavelengths) | amount of absorption change per minute ([1]; Serum (6), same wavelengths) | amount of absorption change per minute ([1]; Serum (7), same wavelengths) | amount of absorption change per minute ([1]; Serum (8), same wavelengths) | amount of absorption change per minute ([1]; Serum (9), same wavelengths) | amount of absorption change per minute ([1]; Serum (10), same wavelengths) | amount of absorption change per minute [1, 3] | solubility (Solubility of substrate) [mg/mL] | λmax: Maximum wavelength [2] [nm] | ST: Stability of pigment (Stability of pigment) [%]
CC(C)C[C@H](N)C(=O)Nc1ccc(O)c(C(=O)O)c1 [(a), L-leucil-3-carboxy-4-hydroxyanilide] | 0.0127 | 0.0198 | 0.0203 | 0.0148 | 0.0158 | 0.0153 | 0.0191 | 0.0190 | 0.0184 | 0.0188 | – | – | –
CC(C)C[C@H](N)C(=O)Nc1ccc(N(C)CCCS(=O)(=O)O)cc1 [compound 4] | – | – | – | – | – | – | – | – | – | – | 65 (≈ 182 mM) | 750 | > 96
COC(=O)c1cc(NC(=O)[C@@H](N)CC(C)C)ccc1N(CCCCS(=O)(=O)O)CCCCS(=O)(=O)O [compound 13] | – | – | – | – | – | – | – | – | – | – | > 200 | 705 | > 98
CC(C)C[C@H](N)C(=O)Nc1ccc(N(CCCS(=O)(=O)O)CCCS(=O)(=O)O)c(S(=O)(=O)O)c1 [compound 8] | – | – | – | – | – | – | – | – | – | – | > 200 | 680 | 93
CC(C)C[C@H](N)C(=O)Nc1ccc(N(CCCS(=O)(=O)O)CCCS(=O)(=O)O)c(Cl)c1 [compound 10] | – | – | – | – | – | – | – | – | – | – | 125 (≈ 250 mM) | 685 | > 98
CC(C)C[C@H](N)C(=O)Nc1ccc(N(CCS(=O)(=O)O)CCS(=O)(=O)O)c(C#N)c1 [compound 11] | – | – | – | – | – | – | – | – | – | – | > 200 | 640 | 95
COc1cc(N(CCCCS(=O)(=O)O)CCCCS(=O)(=O)O)c(C)cc1NC(=O)[C@@H](N)CC(C)C [compound 14] | – | – | – | – | – | – | – | – | – | – | > 200 | 720 | > 98
Cc1cc(NC(=O)[C@@H](N)CC(C)C)ccc1N(CCS(=O)(=O)O)CCS(=O)(=O)O [compound 12] | – | – | – | – | – | – | – | – | – | – | > 200 | 715 | > 98
CCN(CC(O)CS(=O)(=O)O)c1ccc(NC(=O)[C@@H](N)CC(C)C)cc1 (stereo partly drawn) [compound 6] | – | – | – | – | – | – | – | – | – | – | 90 (≈ 232 mM) | 740 | > 98
CC(C)C[C@H](N)C(=O)Nc1ccc([N+](=O)[O-])cc1 [(b), L-leucil-p-nitroanilide] | 0.0054 | 0.0090 | 0.0089 | 0.0071 | 0.0071 | 0.0074 | 0.0086 | 0.0082 | 0.0079 | 0.0071 | – | – | –
CCN(CC)c1ccc(NC(=O)[C@@H](N)CC(C)C)cc1 [(c), L-leucil-p-N,N-- diethylaminoanilide] | 0.0095 | 0.0150 | 0.0145 | 0.0116 | 0.0126 | 0.0113 | 0.0150 | 0.0138 | 0.0133 | 0.0158 | – | – | –
